According to PubChem BioAssay (NCI):
Values joined by “and” are separate entries in the source; they are usually repeats but may differ in a detail not shown here. Equal values may be shown once.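 Grown in 96-well plates, cells were treated for 48 hours with each compound at five concentrations. Insufficient inhibition: endpoint recorded as highest concentration tested. Here, GI50 denotes the concentration required for 50% inhibition of growth. At the TGI there is no net growth.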

Columns and labels:
Test in all cases: DTP human tumour cell line panel, 48 h
786-0 renal = system: 786-0 renal
A498 renal = system: A498 renal
A549 NSCLC = system: A549 NSCLC
ACHN renal = system: ACHN renal
BT-549 breast = system: BT-549 breast
CAKI-1 renal = system: CAKI-1 renal
CCRF-CEM leukemia = system: CCRF-CEM leukemia
COLO 205 colon = system: COLO 205 colon
DU-145 prostate = system: DU-145 prostate
EKVX NSCLC = system: EKVX NSCLC
HCC-2998 colon = system: HCC-2998 colon
HCT-116 colon = system: HCT-116 colon
HCT-15 colon = system: HCT-15 colon
HL-60(TB) leukemia = system: HL-60(TB) leukemia
HOP-62 NSCLC = system: HOP-62 NSCLC
HOP-92 NSCLC = system: HOP-92 NSCLC
HS 578T breast = system: HS 578T breast
HT29 colon = system: HT29 colon
IGROV1 ovarian = system: IGROV1 ovarian
K-562 leukemia = system: K-562 leukemia
KM12 colon = system: KM12 colon
LOX IMVI melanoma = system: LOX IMVI melanoma
M14 melanoma = system: M14 melanoma
MALME-3M melanoma = system: MALME-3M melanoma
MCF7 breast = system: MCF7 breast
MDA-MB-231 breast = system: MDA-MB-231 breast
MDA-MB-435 = system: MDA-MB-435
MOLT-4 leukemia = system: MOLT-4 leukemia
NCI-H226 lung = system: NCI-H226 lung
NCI-H23 lung = system: NCI-H23 lung
NCI-H460 lung = system: NCI-H460 lung
NCI-H522 lung = system: NCI-H522 lung
NCI/ADR-RES ovarian = system: NCI/ADR-RES ovarian
OVCAR-3 ovarian = system: OVCAR-3 ovarian
OVCAR-4 ovarian = system: OVCAR-4 ovarian
OVCAR-5 ovarian = system: OVCAR-5 ovarian
OVCAR-8 ovarian = system: OVCAR-8 ovarian
PC-3 prostate = system: PC-3 prostate
RPMI-8226 leukemia = system: RPMI-8226 leukemia
RXF 393 renal = system: RXF 393 renal
SF-268 CNS = system: SF-268 CNS
SF-295 CNS = system: SF-295 CNS
SF-539 CNS = system: SF-539 CNS
SK-MEL-2 melanoma = system: SK-MEL-2 melanoma
SK-MEL-28 melanoma = system: SK-MEL-28 melanoma
SK-MEL-5 melanoma = system: SK-MEL-5 melanoma
SK-OV-3 ovarian = system: SK-OV-3 ovarian
SN12C renal = system: SN12C renal
SNB-19 CNS = system: SNB-19 CNS
SNB-75 CNS = system: SNB-75 CNS
SR leukemia = system: SR leukemia
SW-620 colon = system: SW-620 colon
T-47D breast = system: T-47D breast
TK-10 renal = system: TK-10 renal
U251 CNS = system: U251 CNS
UACC-257 melanoma = system: UACC-257 melanoma
UACC-62 melanoma = system: UACC-62 melanoma
UO-31 renal = system: UO-31 renal

Cn1cnc2c(F)c(Nc3ccc(Br)cc3Cl)c(C(=O)NOCCO)cc21 was tested, and the GI50 (786-0 renal) was > 10 µM and 60.6 µM, the TGI (786-0 renal) was > 100 µM and the GI50 (A498 renal) was 0.103 µM and 0.16 µM. The TGI (A498 renal) was 1.86 µM and 4.1 µM, the GI50 (A549 NSCLC) was 6.85 µM and 10.8 µM and the TGI (A549 NSCLC) was > 100 µM. The GI50 (ACHN renal) was 9.92 µM and 29 µM, the TGI (ACHN renal) was > 100 µM and the GI50 (BT-549 breast) was > 10 µM and 30 µM. The TGI (BT-549 breast) was > 100 µM, the GI50 (CAKI-1 renal) was > 2.6 µM and 17.9 µM and the TGI (CAKI-1 renal) was > 100 µM. For the same molecule, the GI50 (CCRF-CEM leukemia) was > 94.6 µM, the TGI (CCRF-CEM leukemia) was > 100 µM and the GI50 (COLO 205 colon) was 0.0211 µM and < 0.0137 µM. For the same molecule, the TGI (COLO 205 colon) was > 15.1 µM, the GI50 (DU-145 prostate) was > 10 µM and 74.6 µM and the TGI (DU-145 prostate) was > 100 µM. The GI50 (EKVX NSCLC) was 0.734 µM and 3.88 µM, the TGI (EKVX NSCLC) was > 100 µM and the GI50 (HCC-2998 colon) was 0.0213 µM and < 0.0171 µM. The TGI (HCC-2998 colon) was > 10 µM and 2.77 µM, the GI50 (HCT-116 colon) was 0.648 µM and 1.07 µM and the TGI (HCT-116 colon) was > 100 µM. For the same molecule, the GI50 (HCT-15 colon) was > 10 µM and 40.5 µM, the TGI (HCT-15 colon) was > 100 µM and the GI50 (HL-60(TB) leukemia) was 0.0218 µM. The TGI (HL-60(TB) leukemia) was > 10 µM and 5.35 µM, the GI50 (HOP-62 NSCLC) was 0.399 µM and 0.232 µM and the TGI (HOP-62 NSCLC) was > 100 µM. For the same molecule, the GI50 (HOP-92 NSCLC) was 0.197 µM and 0.235 µM, the TGI (HOP-92 NSCLC) was 6.14 µM and 8.67 µM and the GI50 (HS 578T breast) was > 10 µM and 32.5 µM. For the same molecule, the TGI (HS 578T breast) was > 100 µM, the GI50 (HT29 colon) was 0.0278 µM and 0.0265 µM and the TGI (HT29 colon) was > 100 µM. For the same molecule, the GI50 (IGROV1 ovarian) was 0.264 µM and 1.34 µM, the TGI (IGROV1 ovarian) was > 100 µM and the GI50 (K-562 leukemia) was > 10 µM and 12.3 µM. The TGI (K-562 leukemia) was > 100 µM, the GI50 (KM12 colon) was 0.685 µM and 0.847 µM and the TGI (KM12 colon) was > 100 µM. For the same molecule, the GI50 (LOX IMVI melanoma) was 1.26 µM and 1.45 µM, the TGI (LOX IMVI melanoma) was > 80.9 µM and the GI50 (M14 melanoma) was 0.0271 µM and < 0.0144 µM. For the same molecule, the TGI (M14 melanoma) was > 6.91 µM and 4.53 µM, the GI50 (MALME-3M melanoma) was < 0.0187 µM and the TGI (MALME-3M melanoma) was 0.018 µM. For the same molecule, the GI50 (MCF7 breast) was > 100 µM, the TGI (MCF7 breast) was > 100 µM and the GI50 (MDA-MB-231 breast) was 0.822 µM and 1.94 µM. For the same molecule, the TGI (MDA-MB-231 breast) was > 100 µM, the GI50 (MDA-MB-435) was 0.0709 µM and 0.0294 µM and the TGI (MDA-MB-435) was > 100 µM. For the same molecule, the GI50 (MOLT-4 leukemia) was > 10 µM and 62.2 µM, the TGI (MOLT-4 leukemia) was > 100 µM and the GI50 (NCI-H226 lung) was > 10 µM and 23.9 µM. For the same molecule, the TGI (NCI-H226 lung) was > 100 µM, the GI50 (NCI-H23 lung) was 0.74 µM and 1.04 µM and the TGI (NCI-H23 lung) was > 100 µM. The GI50 (NCI-H460 lung) was > 10 µM and 32.3 µM, the TGI (NCI-H460 lung) was > 100 µM and the GI50 (NCI-H522 lung) was > 10 µM and 61.3 µM. For the same molecule, the TGI (NCI-H522 lung) was > 100 µM, the GI50 (NCI/ADR-RES ovarian) was > 100 µM and the TGI (NCI/ADR-RES ovarian) was > 100 µM. The GI50 (OVCAR-3 ovarian) was > 10 µM and 62.9 µM, the TGI (OVCAR-3 ovarian) was > 100 µM and the GI50 (OVCAR-4 ovarian) was > 10 µM and 22.7 µM. The TGI (OVCAR-4 ovarian) was > 100 µM, the TGI (OVCAR-5 ovarian) was > 100 µM and the GI50 (OVCAR-8 ovarian) was > 10 µM and 67.9 µM. For the same molecule, the TGI (OVCAR-8 ovarian) was > 100 µM, the GI50 (PC-3 prostate) was > 100 µM and the TGI (PC-3 prostate) was > 100 µM. The GI50 (RPMI-8226 leukemia) was > 10 µM and 28.2 µM, the TGI (RPMI-8226 leukemia) was > 100 µM and the GI50 (RXF 393 renal) was 1.9 µM and 9.28 µM. For the same molecule, the TGI (RXF 393 renal) was > 10 µM and 78 µM, the GI50 (SF-268 CNS) was > 10 µM and 60.5 µM and the TGI (SF-268 CNS) was > 100 µM. For the same molecule, the GI50 (SF-295 CNS) was > 10 µM and 67.2 µM, the TGI (SF-295 CNS) was > 100 µM and the GI50 (SF-539 CNS) was > 10 µM and 22.4 µM. For the same molecule, the TGI (SF-539 CNS) was > 100 µM, the GI50 (SK-MEL-2 melanoma) was 0.0262 µM and < 0.0122 µM and the TGI (SK-MEL-2 melanoma) was 0.78 µM and 0.565 µM. The GI50 (SK-MEL-28 melanoma) was 0.0269 µM and 0.0268 µM, the TGI (SK-MEL-28 melanoma) was > 2.81 µM and 2.52 µM and the GI50 (SK-MEL-5 melanoma) was 2.4 µM and 0.95 µM. For the same molecule, the TGI (SK-MEL-5 melanoma) was > 100 µM, the GI50 (SK-OV-3 ovarian) was > 10 µM and 63.4 µM and the TGI (SK-OV-3 ovarian) was > 100 µM. For the same molecule, the GI50 (SN12C renal) was > 10 µM and 47.6 µM, the TGI (SN12C renal) was > 100 µM and the GI50 (SNB-19 CNS) was > 10 µM and 40.4 µM. The TGI (SNB-19 CNS) was > 100 µM, the GI50 (SNB-75 CNS) was > 10 µM and 60.4 µM and the TGI (SNB-75 CNS) was > 100 µM. The GI50 (SR leukemia) was > 10 µM and 5.85 µM, the TGI (SR leukemia) was > 33.8 µM and the GI50 (SW-620 colon) was 0.0436 µM and 0.0226 µM. For the same molecule, the TGI (SW-620 colon) was > 100 µM, the GI50 (T-47D breast) was > 10 µM and 82.4 µM and the TGI (T-47D breast) was > 100 µM. The GI50 (TK-10 renal) was 0.183 µM and 1.62 µM, the TGI (TK-10 renal) was > 100 µM and the GI50 (U251 CNS) was > 8.16 µM and 30.1 µM. The TGI (U251 CNS) was > 100 µM, the GI50 (UACC-257 melanoma) was 0.0212 µM and < 0.0177 µM and the TGI (UACC-257 melanoma) was 0.207 µM and 0.0755 µM. The GI50 (UACC-62 melanoma) was 0.0123 µM and 0.0212 µM, the GI50 (UO-31 renal) was 1.45 µM and 3.38 µM and the TGI (UO-31 renal) was > 66 µM.
